# Measured values: US12551463B2, “Dosing of a Bruton's tyrosine kinase inhibitor” (Loxo Oncology, Inc., priority 2019, dated 2026)
# Entries after “also recorded” stand apart in the source; their conditions may differ. Where two headings read alike, the source gives them in different places. Marks after values point to notes of the source that are not given here.
# Assay: Phase 1/2 clinical study: pharmacokinetics in cancer patients
# Assay type: in vivo, human
# Conditions: for AUC(0-t) / half-life / Cmax / Tmax / concentration at 0 h / concentration at 1 h / concentration at 2 h / concentration at 4 h / concentration at 8 h / concentration at 24 h: human, plasma, oral; for Cmax: read-out: Cmax Geo mean (% CV); for Tmax: read-out: Tmax Median (min, max); for concentration at 0 h / concentration at 1 h / concentration at 2 h / concentration at 4 h / concentration at 8 h / concentration at 24 h: read-out: Mean patient plasma CONC (SD); for concentration at 24 h: 24 hr (not measured, inferred based on predose)
# From the text: The study is an open-label, multi-center study of oral BTK-I to evaluate safety and efficacy as monotherapy and as part of combination therapy in patients with CLL/SLL and NHL who have failed or are intolerant to standard of care. This study includes monotherapy as well as combination treatment parts. The monotherapy part includes Phase 1 dose escalation and dose expansion as well as Phase 2. The combination therapy part is a Phase 1b (safety assessment and expansion) of BTK-I in combination with venetoclax, with or without anti-CD20 therapy. Phase 1 dose escalation will proceed prior to start of Phase 1b or Phase 2. Once a recommended Phase 2 dose (RP2D) is identified in Phase 1, enrollment can commence to the Phase 1b combination therapies and Phase 2 monotherapy cohorts.
# BTK-I is administered in oral tablet form. Dose escalation will follow a 3+3 design starting with a 25 mg QD dose (followed by 50 mg QD (dose level cohort 2), 100 mg QD (dose level cohort 3), 150 mg QD (dose level cohort 4), 200 mg QD (dose level cohort 5), 250 mg QD (dose level cohort 6), and 300 mg QD (dose level cohort 7)). Cycle length will be 28 days. The drug limiting toxicity (DLT) period will be 28 days, commencing with the first dose of BTK-I.
# The pharmacokinetic profiles and adverse events for BTK-I doses are summarized in the below tables.
# Pharmacokinetic Parameters of BTK-I—in Cancer Patients at Steady State (Cycle 1 Day 8)
# [1] = 250 mg QD, steady state (Cycle 1 Day 8), N=25
# [2] = 25 mg QD, steady state (Cycle 1 Day 8), N=5
# [3] = 50 mg QD, steady state (Cycle 1 Day 8), N=6
# [4] = 100 mg QD, steady state (Cycle 1 Day 8), N=9
# [5] = 150 mg QD, steady state (Cycle 1 Day 8), N=20
# [6] = 200 mg QD, steady state (Cycle 1 Day 8), N=99
# [7] = 300 mg QD, steady state (Cycle 1 Day 8), N=17
structure (smiles),measurement,setting,value
"COc1ccc(F)cc1C(=O)NCc1ccc(-c2nn([C@@H](C)C(F)(F)F)c(N)c2C(N)=O)cc1 [BTK-I, (S)-5-amino-3-(4-((5-fluoro-2-methoxybenzamido)methyl)phenyl)-1-(1,1,1-trifluoropropane-2-yl)-1H-pyrazole-4-carboxamide]",Ratio AUC0-8 Day 8/Day 1 Geo mean (% CV),25 mg QD (N = 5),1.44 (23.0%)
same,CL/F Geo mean (% CV),"25 mg QD, steady state (Cycle 1 Day 8), N = 4, % CV 69.6%",1.55^a (69.6%) L/h
same,dose dependence of exposure (Cmax and AUC),25 mg to 300 mg daily,dose-5 dependent and linear increases in BTK-I exposure; also recorded: linear dose-proportional exposures
same,interpatient variability of exposure,25 mg to 300 mg daily,low interpatient variability
same,Ratio AUC0-8 Day 8/Day 1 Geo mean (% CV),50 mg QD (N = 6),1.51 (25.9%)
same,CL/F Geo mean (% CV),"50 mg QD, steady state (Cycle 1 Day 8), N = 5, % CV 36.7%",2.62^b (36.7%) L/h
same,Ratio AUC0-8 Day 8/Day 1 Geo mean (% CV),100 mg QD (N = 9),1.88 (42.8%)
same,CL/F Geo mean (% CV),"100 mg QD, steady state (Cycle 1 Day 8), N = 8, % CV 63.0%",0.968^c (63.0%) L/h
same,Ratio AUC0-8 Day 8/Day 1 Geo mean (% CV),150 mg QD (N = 20),1.74 (24.9%)
same,T1/2 Geo mean (% CV),"150 mg QD, steady state (Cycle 1 Day 8), N = 18, % CV 51.8%",18.l^d (51.8%)
same,CL/F Geo mean (% CV),"150 mg QD, steady state (Cycle 1 Day 8), N = 18, % CV 66.7%",1.36^d (66.7%) L/h
same,trough steady-state exposure relative to BTK IC96,200 mg QD,BTK IC96 target coverage
same,Ratio AUC0-8 Day 8/Day 1 Geo mean (% CV),"200 mg QD, N = 73, % CV 29.6%",1.69^h (29.6%)^
same,CL/F Geo mean (% CV),"200 mg QD, steady state (Cycle 1 Day 8), N = 64, % CV 61.8%",1.14^e (61.8%) L/h
same,Ratio AUC0-8 Day 8/Day 1 Geo mean (% CV),250 mg QD (N = 25),1.68 (24.5%)
same,CL/F Geo mean (% CV),"250 mg QD, steady state (Cycle 1 Day 8), N = 21, % CV 1.08%",1.26^f (1.08%) L/h
same,Cmax Geo mean (% CV),[1],8100 (28.1%) ng/mL
same,Ratio AUC0-8 Day 8/Day 1 Geo mean (% CV),"300 mg QD, N=17",2.15 (31.2%)
same,CL/F Geo mean (% CV),"300 mg QD, steady state (Cycle 1 Day 8), N = 16, % CV 42.5%",1.63^g (42.5%) L/h
same,AUC(0-t),"25 mg, 25 mg QD, steady state (Cycle 1 Day 8), N=5, read-out: AUC0-8 Geo mean (% CV)",4240 ng·h/mL
same,AUC(0-t),"25 mg, 25 mg QD, steady state (Cycle 1 Day 8), N=5, read-out: AUC0-24 Geo mean (% CV)",9800 ng·h/mL
same,AUC(0-t),"50 mg, 50 mg QD, steady state (Cycle 1 Day 8), N=6, read-out: AUC0-8 Geo mean (% CV)",8660 ng·h/mL
same,AUC(0-t),"50 mg, 50 mg QD, steady state (Cycle 1 Day 8), N=6, read-out: AUC0-24 Geo mean (% CV)",20100 ng·h/mL
same,AUC(0-t),"100 mg, 100 mg QD, steady state (Cycle 1 Day 8), N=9, read-out: AUC0-8 Geo mean (% CV)",22000 ng·h/mL
same,AUC(0-t),"100 mg, 100 mg QD, steady state (Cycle 1 Day 8), N=9, read-out: AUC0-24 Geo mean (% CV)",52400 ng·h/mL
same,AUC(0-t),"150 mg, 150 mg QD, steady state (Cycle 1 Day 8), N=20, read-out: AUC0-8 Geo mean (% CV)",28000 ng·h/mL
same,AUC(0-t),"150 mg, 150 mg QD, steady state (Cycle 1 Day 8), N=20, read-out: AUC0-24 Geo mean (% CV)",64400 ng·h/mL
same,AUC(0-t),"200 mg, 200 mg QD, steady state (Cycle 1 Day 8), N=99, read-out: AUC0-8 Geo mean (% CV)",36900 ng·h/mL
same,AUC(0-t),"200 mg, 200 mg QD, steady state (Cycle 1 Day 8), N=99, read-out: AUC0-24 Geo mean (% CV)",91000 ng·h/mL
same,AUC(0-t),"250 mg, 250 mg QD, steady state (Cycle 1 Day 8), N=25, read-out: AUC0-8 Geo mean (% CV)",49700 ng·h/mL
same,AUC(0-t),"250 mg, 250 mg QD, steady state (Cycle 1 Day 8), N=25, read-out: AUC0-24 Geo mean (% CV)",111000 ng·h/mL
same,AUC(0-t),"300 mg, 300 mg QD, steady state (Cycle 1 Day 8), N=17, read-out: AUC0-8 Geo mean (% CV)",65800 ng·h/mL
same,AUC(0-t),"300 mg, 300 mg QD, steady state (Cycle 1 Day 8), N=17, read-out: AUC0-24 Geo mean (% CV)",158000 ng·h/mL
same,half-life,"25 mg QD, steady state (Cycle 1 Day 8), N = 4, % CV 60.1%, read-out: T1/2 Geo mean (% CV) (converted)",18.2 h
same,Cmax,[2],734 ng/mL
same,Tmax,[2],2 h
same,concentration at 0 h,25 mg,263 ng/mL
same,concentration at 1 h,25 mg,572 ng/mL
same,concentration at 2 h,25 mg,650 ng/mL
same,concentration at 4 h,25 mg,538 ng/mL
same,concentration at 8 h,25 mg,495 ng/mL
same,concentration at 24 h,25 mg,263 ng/mL
same,half-life,"50 mg QD, steady state (Cycle 1 Day 8), N = 5, % CV 39.6%, read-out: T1/2 Geo mean (% CV) (converted)",17.6 h
same,Cmax,[3],1420 ng/mL
same,Tmax,[3],1.5 h
same,concentration at 0 h,50 mg,571 ng/mL
same,concentration at 1 h,50 mg,1150 ng/mL
same,concentration at 2 h,50 mg,1300 ng/mL
same,concentration at 4 h,50 mg,1170 ng/mL
same,concentration at 8 h,50 mg,1020 ng/mL
same,concentration at 24 h,50 mg,571 ng/mL
same,half-life,"100 mg QD, steady state (Cycle 1 Day 8), N = 8, % CV 33.9%, read-out: T1/2 Geo mean (% CV) (converted)",22.2 h
same,Cmax,[4],3910 ng/mL
same,Tmax,[4],2 h
same,concentration at 0 h,100 mg,1580 ng/mL
same,concentration at 1 h,100 mg,2170 ng/mL
same,concentration at 2 h,100 mg,3670 ng/mL
same,concentration at 4 h,100 mg,2800 ng/mL
same,concentration at 8 h,100 mg,2360 ng/mL
same,concentration at 24 h,100 mg,1580 ng/mL
same,Cmax,[5],4680 ng/mL
same,Tmax,[5],2 h
same,concentration at 0 h,150 mg,1800 ng/mL
same,concentration at 1 h,150 mg,3670 ng/mL
same,concentration at 2 h,150 mg,4640 ng/mL
same,concentration at 4 h,150 mg,3660 ng/mL
same,concentration at 8 h,150 mg,3320 ng/mL
same,concentration at 24 h,150 mg,1800 ng/mL
same,half-life,"200 mg QD, steady state (Cycle 1 Day 8), N = 64, % CV 56.2%, read-out: T1/2 Geo mean (% CV) (converted)",19.9 h
same,Cmax,[6],5770 ng/mL
same,Tmax,[6],2 h
same,concentration at 0 h,200 mg,2770 ng/mL
same,concentration at 1 h,200 mg,4940 ng/mL
same,concentration at 2 h,200 mg,6160 ng/mL
same,concentration at 4 h,200 mg,5270 ng/mL
same,concentration at 8 h,200 mg,4660 ng/mL
same,concentration at 24 h,200 mg,2770 ng/mL
same,half-life,"250 mg QD, steady state (Cycle 1 Day 8), N = 21, % CV 50.6%, read-out: T1/2 Geo mean (% CV) (converted)",17.4 h
same,Tmax,[1],2 h
same,concentration at 0 h,250 mg,3160 ng/mL
same,concentration at 1 h,250 mg,6910 ng/mL
same,concentration at 2 h,250 mg,7870 ng/mL
same,concentration at 4 h,250 mg,6840 ng/mL
same,concentration at 8 h,250 mg,5500 ng/mL
same,concentration at 24 h,250 mg,3160 ng/mL
same,half-life,"300 mg QD, steady state (Cycle 1 Day 8), N = 16, % CV 102%, read-out: T1/2 Geo mean (% CV) (converted)",30.1 h
same,Cmax,[7],10700 ng/mL
same,Tmax,[7],2 h
same,concentration at 0 h,300 mg,5510 ng/mL
same,concentration at 1 h,300 mg,9730 ng/mL
same,concentration at 2 h,300 mg,10700 ng/mL
same,concentration at 4 h,300 mg,8420 ng/mL
same,concentration at 8 h,300 mg,7510 ng/mL
same,concentration at 24 h,300 mg,5510 ng/mL
same,half-life,"patients, read-out: observed half-life (converted)",~20 h
same,target coverage for wild-type and C481S-mutated BTK,"starting at the 50 mg QD dose, estimates from cell-based potencies",delivered >IC90 target coverage
